Results on 19 molecules are retold here after ChEMBL document CHEMBL3997818, “Structure-activity relationship studies of 1-(1'-hydroxyalkyl)rupestonic acid methyl esters against influenza viruses” (Bioorg Med Chem Lett, 2017).

Series [1] in a line: Cytotoxicity against MDCK cells after 48 hrs by Reed and Muench analysis. It counts as cell-based, Canis lupus familiaris. The note with it: dog, read-out: TC50.
The nature of series [2]: Selectivity index, ratio of TC50 for MDCK cells to IC50 for Influenza B virus infected in MDCK cells. It counts as toxicity, cell-based. As to conditions: dog, read-out: Selectivity Index.
The test system of the next series is Influenza B virus. Kind of series: Antiviral activity against Influenza B virus infected in MDCK cells assessed as inhibition of virus-induced cytopathic effect after 40 hrs. Format: functional, cell-based.
The test system of the next series is Influenza A virus H3N2. As to the kind of experiment: Antiviral activity against Influenza A virus H3N2 infected in MDCK cells assessed as inhibition of virus-induced cytopathic effect after 40 hrs. It counts as functional, cell-based.
A further series deals with Influenza A virus. Kind of series: Antiviral activity against Influenza A virus H1N1 infected in MDCK cells assessed as inhibition of virus-induced cytopathic effect after 40 hrs. Format: functional, cell-based. (Protection from cytopathic effect is a common read-out in antiviral testing.)
Series [3] can be described thus: Selectivity index, ratio of TC50 for MDCK cells to IC50 for Influenza A virus H3N2 infected in MDCK cells. It counts as toxicity, cell-based. The note with it: dog, read-out: Selectivity Index.
The nature of series [4]: Selectivity index, ratio of TC50 for MDCK cells to IC50 for Influenza A virus H1N1 infected in MDCK cells. As to conditions: dog, read-out: Selectivity Index. Format: toxicity, cell-based.

≈ marks a conversion by molar mass, not a printed value.

Regarding `C=C(C(=O)OC)[C@@H]1CC[C@H](C)[C@H]2C(=C(C)C(=O)[C@@H]2C(O)c2cc(F)cc(F)c2)C1` (single isomer, unassigned), the CC50 at 48 h in series [1] worked out at 32.1 µg/mL (≈ 79.3 µM). The figures for the selectivity ratio in series [2], in series [3] and in series [4] were 1.7, 2.2 and 12.2, respectively. For the same molecule, the IC50 (usually the concentration needed to halve the response being measured) in the series with Influenza B virus stood at 18.5 µg/mL (≈ 45.8 µM); in the series on Influenza A virus H3N2 it was 14 µg/mL (≈ 34.6 µM); with Influenza A virus, 2.63 µg/mL (≈ 6.5 µM).

Regarding `C=C(C(=O)OC)[C@@H]1CC[C@H](C)[C@H]2C(=C(C)C(=O)[C@@H]2C(O)c2ccc(OC(F)(F)F)cc2)C1` (single isomer, unassigned), the CC50 at 48 h in series [1] amounted to 32.1 µg/mL (≈ 70.9 µM). The IC50 in the series on Influenza B virus was greater than 18.5 µg/mL; in the series on Influenza A virus H3N2 it was 18 µg/mL (≈ 39.8 µM); with Influenza A virus, greater than 18.5 µg/mL. The selectivity ratio in series [3] was found to be 1.7.

With `C=C(C(=O)OC)[C@@H]1CC[C@H](C)[C@H]2C(=C(C)C(=O)[C@@H]2C(O)c2ccncc2)C1` (single isomer, unassigned), the CC50 at 48 h in series [1] amounted to 80.1 µg/mL (≈ 217 µM). Besides, the selectivity ratio was 4.3 in series [2] and 7.5 in series [4]. For the same molecule, the IC50 was 18.5 µg/mL (≈ 50.1 µM) in the series with Influenza B virus, greater than 18.5 µg/mL in the series with Influenza A virus H3N2 and 10.7 µg/mL (≈ 28.9 µM) in the series on Influenza A virus.

Consider `NC(=O)c1ncn([C@@H]2O[C@H](CO)[C@@H](O)[C@H]2O)n1` [RIBAVIRIN], for which the selectivity ratio worked out at 1400 in series [2], 1100 in series [3] and 560 in series [4]. Further, the IC50 stood at 0.8 µg/mL (≈ 3.28 µM) in the series on Influenza B virus, 1.1 µg/mL (≈ 4.5 µM) in the series with Influenza A virus H3N2 and 2.1 µg/mL (≈ 8.6 µM) in the series with Influenza A virus.

For the molecule `C=C(C(=O)O)[C@@H]1CC[C@H](C)[C@@H]2CC(=O)C(C)=C2C1` [PECHUELOIC ACID], the CC50 at 48 h in series [1] was determined as 240 µg/mL (≈ 968 µM). In addition, the selectivity ratio was 10 in series [2], 4.3 in series [3] and 4.3 in series [4]. The values for the IC50 in the series with Influenza B virus, with Influenza A virus H3N2 and with Influenza A virus were 24 µg/mL (≈ 96.6 µM), 55.6 µg/mL (≈ 224 µM) and 55.6 µg/mL (≈ 224 µM), respectively.

For `C=C(C(=O)OC)[C@@H]1CC[C@H](C)[C@H]2C(=C(C)C(=O)[C@@H]2C(O)c2ccccc2)C1` (single isomer, unassigned), the CC50 at 48 h in series [1] worked out at 12.8 µg/mL (≈ 34.8 µM). Also, the IC50 was greater than 6.17 µg/mL in the series with Influenza B virus, 6 µg/mL (≈ 16.3 µM) in the series on Influenza A virus H3N2 and 6.17 µg/mL (≈ 16.7 µM) in the series with Influenza A virus. Moreover, the selectivity ratio in series [3] and in series [4] was 2.1 throughout.

With `C=C(C(=O)OC)[C@@H]1CC[C@H](C)[C@H]2C(=C(C)C(=O)[C@@H]2C(O)c2cc(OC)c(OC)c(OC)c2)C1` (single isomer, unassigned), the CC50 at 48 h in series [1] was 167 µg/mL (≈ 363 µM). The IC50 is greater than 55.6 µg/mL in the series on Influenza B virus, 56 µg/mL (≈ 122 µM) in the series with Influenza A virus H3N2 and 13 µg/mL (≈ 28.4 µM) in the series with Influenza A virus. The values for the selectivity ratio in series [3] and in series [4] were 3 and 13, respectively.

With `C=C(C(=O)OC)[C@@H]1CC[C@H](C)[C@H]2C(=C(C)C(=O)[C@@H]2C(O)c2cccs2)C1` (single isomer, unassigned), the CC50 at 48 h in series [1] is 8.9 µg/mL (≈ 23.8 µM). Besides, the IC50 in the series on Influenza B virus was greater than 2.06 µg/mL; in the series on Influenza A virus H3N2, 1.19 µg/mL (≈ 3.18 µM); in the series with Influenza A virus, greater than 2.06 µg/mL. For the same molecule, the selectivity ratio in series [3] worked out at 7.5.

In the case of `C=C(C(=O)OC)[C@@H]1CC[C@H](C)[C@H]2C(=C(C)C(=O)[C@@H]2[C@H](O)CC)C1`, the CC50 at 48 h in series [1] worked out at 167 µg/mL (≈ 520 µM). In addition, the selectivity ratio turned out to be 7 in series [2] and 9 in series [4]. Moreover, the IC50 is 18.5 µg/mL (≈ 57.8 µM) in the series with Influenza B virus, greater than 55.6 µg/mL in the series on Influenza A virus H3N2 and 14.4 µg/mL (≈ 44.8 µM) in the series with Influenza A virus.

Consider `C=C(C(=O)OC)[C@@H]1CC[C@H](C)[C@H]2C(=C(C)C(=O)[C@@H]2C(O)c2ccc([N+](=O)[O-])s2)C1` (single isomer, unassigned), for which the CC50 at 48 h in series [1] was determined as 4.28 µg/mL (≈ 10.2 µM). Further, the results for the selectivity ratio in series [2] and in series [4] were 2.1 and 2.7, respectively. The figures for the IC50 in the series with Influenza B virus, in the series with Influenza A virus H3N2 and in the series with Influenza A virus were 2.06 µg/mL (≈ 4.91 µM), greater than 2.06 µg/mL and 1.6 µg/mL (≈ 3.81 µM), respectively.

As for `C=C(C(=O)OC)[C@@H]1CC[C@H](C)[C@H]2C(=C(C)C(=O)[C@@H]2C(O)c2cc(C(F)(F)F)cc(C(F)(F)F)c2)C1` (single isomer, unassigned), in series [1], the CC50 at 48 h was found to be 32.1 µg/mL (≈ 63.6 µM). In addition, the IC50 in the series with Influenza B virus is greater than 18.5 µg/mL; in the series on Influenza A virus H3N2 it was 18.5 µg/mL (≈ 36.7 µM); in the series on Influenza A virus it was 11 µg/mL (≈ 21.8 µM). Besides, the values for the selectivity ratio in series [3] and in series [4] were 1.7 and 3, respectively.

Consider `CCOC(=O)C1=C[C@@H](OC(CC)CC)[C@H](NC(C)=O)[C@@H](N)C1` [OSELTAMIVIR], for which the IC50 was 1.7 µg/mL (≈ 5.44 µM) with Influenza A virus H3N2 and 3.9 µg/mL (≈ 12.5 µM) in the series with Influenza A virus.

Turning to `C=C(C(=O)OC)[C@@H]1CC[C@H](C)[C@H]2C(=C(C)C(=O)[C@@H]2C(O)c2ccc(F)cc2)C1` (single isomer, unassigned), the CC50 at 48 h in series [1] worked out at 80.1 µg/mL (≈ 207 µM). Moreover, the results for the selectivity ratio in series [2] and in series [4] were 7.5 and 4.3, respectively. Besides, the IC50 was 11 µg/mL (≈ 28.5 µM) with Influenza B virus, greater than 18.5 µg/mL with Influenza A virus H3N2 and 19 µg/mL (≈ 49.2 µM) in the series with Influenza A virus.

For the molecule `C=C(C(=O)OC)[C@@H]1CC[C@H](C)[C@H]2C(=C(C)C(=O)[C@@H]2C(O)c2cc(Cl)cc(Cl)c2)C1` (single isomer, unassigned), the CC50 at 48 h in series [1] stood at 10.7 µg/mL (≈ 24.4 µM). For the same molecule, the IC50 with Influenza B virus is greater than 6.17 µg/mL; in the series on Influenza A virus H3N2 it was 6 µg/mL (≈ 13.7 µM); with Influenza A virus it was greater than 6.17 µg/mL. In addition, the selectivity ratio in series [3] is 1.7.

`C=C(C(=O)OC)[C@@H]1CC[C@H](C)[C@H]2C(=C(C)C(=O)[C@@H]2[C@@H](C)O)C1`: in series [1], the CC50 at 48 h was 500 µg/mL (≈ 1630 µM). Besides, the selectivity ratio came to 7 in series [2] and 5 in series [4]. Also, the IC50 with Influenza B virus was 72 µg/mL (≈ 235 µM); in the series with Influenza A virus H3N2 it was greater than 167 µg/mL; in the series on Influenza A virus it was 90 µg/mL (≈ 294 µM).

Turning to `C=C(C(=O)OC)[C@@H]1CC[C@H](C)[C@H]2C(=C(C)C(=O)[C@@H]2C(O)c2ccc(N(C)C)cc2)C1` (single isomer, unassigned), in series [1], the CC50 at 48 h amounted to 32.1 µg/mL (≈ 78 µM). The IC50 with Influenza B virus is greater than 18.5 µg/mL; with Influenza A virus H3N2, 18.5 µg/mL (≈ 45 µM); in the series on Influenza A virus it was 10.7 µg/mL (≈ 26 µM). Further, the selectivity ratio in series [3] was 1.7; in series [4], 3.

As for `C=C(C(=O)OC)[C@@H]1CC[C@H](C)[C@H]2C(=C(C)C(=O)[C@@H]2C(O)c2ccc(OC)cc2)C1` (single isomer, unassigned), the CC50 at 48 h in series [1] amounted to 80.1 µg/mL (≈ 201 µM). Besides, the selectivity ratio in series [2] was determined as 4.3. The IC50 in the series with Influenza B virus was 18.5 µg/mL (≈ 46.5 µM); in the series with Influenza A virus H3N2, greater than 18.5 µg/mL; with Influenza A virus, greater than 18.5 µg/mL.

In the case of `C=C(C(=O)OC)[C@@H]1CC[C@H](C)[C@H]2C(=C(C)C(=O)[C@@H]2[C@H](O)/C=C(\C)CCC=C(C)C)C1`, in series [1], the CC50 at 48 h was found to be 3.56 µg/mL (≈ 8.59 µM). The selectivity ratio was found to be 3 in series [2], 2.2 in series [3] and 1.7 in series [4]. Besides, the results for the IC50 with Influenza B virus, in the series with Influenza A virus H3N2 and in the series with Influenza A virus were 1.2 µg/mL (≈ 2.89 µM), 1.6 µg/mL (≈ 3.86 µM) and 2.06 µg/mL (≈ 4.97 µM), respectively.

Regarding `C=C(C(=O)OC)[C@@H]1CC[C@H](C)[C@@H]2CC(=O)C(C)=C2C1`, in series [1], the CC50 at 48 h worked out at 55.6 µg/mL (≈ 212 µM). In addition, the IC50 in the series with Influenza B virus is greater than 18.5 µg/mL; in the series with Influenza A virus H3N2 it was 19 µg/mL (≈ 72.4 µM); in the series on Influenza A virus it was greater than 18.5 µg/mL. Further, in series [3], the selectivity ratio came out at 3.
